The results in this text go back to patent publication US9233933B2, “4,4-disubstituted-1,4-dihydropyrimidines and the use thereof as medicaments for the treatment of hepatitis B” (priority 2012, dated 2016).

As usually defined, the EC50 is the concentration giving half of the maximal effect. By CC50 is commonly meant the concentration giving 50% cytotoxicity.

Data set [1] has as its system HBV. The experiment in a line: anti-HBV activity in stable transfected HepG2.2.15 cell line, HBV DNA from secreted virions by realtime PCR. In kind it is cell-based, Hepatitis B virus. As to conditions: HepG2.2.15 cells, 6 days of treatment, secreted virion HBV DNA, read-out: HBV-HepG2 2.15 EC50.
The test system of data set [2] is HepG2 cells. The experiment in a line: Cytotoxicity in HepG2 cells incubated 4 days, Resazurin assay. The settings on record: read-out: HepG2 4 days CC50.
Data set [3] has as its system HBV. The experiment in a line: anti HBV activity in HepG2.117 cell line (Tet-off, inducibly HBV producing), intracellular HBV DNA by realtime PCR. The settings on record: HepG2.117 cells, 3 days of treatment, intracellular HBV DNA, read-out: HepG2 117 EC50. In kind it is cell-based, Hepatitis B virus.
Data set [4] has as its system HepG2 cells. The settings on record: human, 4 days.
Data set [5] relates to HepG2 cells. The data set can be described thus: Cytotoxicity in HepG2 cells using CellTiter-Blue, same incubation period as HepG2.2.15 assay. As to conditions: 6 days. In kind it is cell-based. Here is the method:
Cytotoxicity of the compounds was tested in HepG2 cells using CellTiter-Blue, with the same incubation period and dose range as in the HepG2.2.15 assay.
(In general: Resazurin is reduced to fluorescent resorufin, in cell work by metabolically active cells.)

Where [6] appears, read: HepG2 cells, CellTiter-Blue, read-out: HepG2 6 days CC50.
The mark [7] stands for this setting: Hepatitis B virus, HepG2.2.15, 144 h.

Like-named read-outs stand apart in the source and are kept apart here.

Turning to `COC(=O)C1=C(C)NC(c2ncc(F)cc2F)=NC1(C)c1ccc(Cl)c(F)c1` (centres unmarked) [156 •MsOH], the EC50 is 1.93 µM in the data set on HBV [1] and 1.09 µM with HBV [3]. Besides, the CC50 with HepG2 cells [2] was more than 25 µM.
Consider `COC(=O)C1=C(C#N)NC(c2ncc(F)cc2F)=NC1(C)c1ccc(F)c(F)c1` (single isomer, unassigned) [Compound 163b], for which the values for the EC50 with HBV [1] and in the data set on HBV [3] were more than 100 µM and more than 25 µM, respectively. Besides, in the data set with HepG2 cells [2], the half-maximal cytotoxic concentration (CC50) is more than 25 µM.
As to `COC(=O)C1=C(C)NC(SC)=NC1(C)c1ccc(F)c(F)c1` (single isomer, unassigned) [Compound 160b], the figures for the EC50 in the data set with HBV [1] and with HBV [3] were 0.451 µM and 10.5 µM, respectively. The CC50 with HepG2 cells [2] is more than 25 µM.
With `COC(=O)C1=C(CN2CCOCC2)NC(c2ccccn2)=NC12c1ccc(F)cc1C(F)C2(F)F` (single isomer, unassigned) [Compound 168B], the figures for the EC50 with HBV [1] and with HBV [3] were 5.73 µM and 1.49 µM, respectively. Further, the CC50 with HepG2 cells [4] is more than 25 µM.
In the case of `N#CC1=C(CN2CCOCC2)NC(c2ccccn2)=NC12CCCc1cc(F)ccc12` (single isomer, unassigned) [Compound 60b], the EC50 with HBV [1] was found to be 2.26 µM; with HBV [3] it was 1.28 µM. Moreover, the CC50 with HepG2 cells [5] (setting [6]) and with HepG2 cells [2] was more than 100 µM each time.
Consider `COC(=O)C1=C(C)NC(c2ncc(F)cc2F)=NC1(C)c1ccc(F)c(F)c1` (centres unmarked) [132b •MsOH], for which the EC50 in the data set with HBV [1] (setting [7]) was 0.694 µM; in the data set with HBV [3] (Hepatitis B virus, HepG2.117, 72 h), 0.803 µM. The CC50 in the data set on HepG2 cells [2] was more than 25 µM.
In the case of `CCOC(=O)C1=C(CN2CCOCC2)NC(c2ccccn2)=NC1(c1ccc(F)cc1)C(F)(F)F` (racemic) [Compound 34a], the concentration for a half-maximal effect (EC50) in the data set with HBV [1] was more than 100 µM. For the same compound, the CC50 in the data set with HepG2 cells [5] (setting [6]) turned out to be 30.9 µM.
For `COC(=O)C1=C(C)NC(c2ncc(F)cc2F)=NC1(c1ccc(F)c(F)c1)C(F)F` (single isomer, unassigned) [Compound 151b], the half-maximal effective concentration (EC50) turned out to be 4.25 µM in the data set on HBV [1] and 3.68 µM in the data set with HBV [3]. In addition, the CC50 in the data set with HepG2 cells [2] was more than 25 µM.
As for `COC(=O)C1=C(CN2CCOCC2)NC(c2ccccn2)=NC12CCc1ccc(F)cc12` (single isomer, unassigned) [Compound 96b], the values for the EC50 in the data set with HBV [1] and in the data set on HBV [3] were 30.3 µM and 18.7 µM, respectively. Besides, the CC50 with HepG2 cells [5] (human) and in the data set on HepG2 cells [4] was more than 100 µM each time.
Take `COC(=O)C1=C(C)NC(c2nccs2)=NC12C(F)=C(F)c1cc(F)ccc12` (single isomer, unassigned) [Compound 166b]: the EC50 with HBV [1] was 0.197 µM; in the data set on HBV [3], 15.5 µM. This compound also returned a CC50 in the data set on HepG2 cells [4] of more than 25 µM.
Consider `COC(=O)C1=C(C)NC(c2ncccn2)=NC1(C)c1ccc(F)c(F)c1` (single isomer, unassigned) [Compound 159b], for which the EC50 is more than 100 µM in the data set with HBV [1] and more than 25 µM in the data set with HBV [3]. For the same compound, in the data set on HepG2 cells [2], the CC50 was more than 25 µM.
In turn, `COC(=O)C1=C(C)NC(c2nccs2)=NC12C(F)=Cc1c2ccc(F)c1F` (single isomer, unassigned) [Compound 174b] yielded a 50% cytotoxic concentration (CC50) with HepG2 cells [4] of more than 25 µM. Besides, the EC50 with HBV [3] is more than 25 µM.
In the case of `CCOC(=O)C1=C(CN2CCOCC2)NC(c2ccccn2)=NC1(c1ccc(F)cc1)C(F)(F)F` (racemic) [Compound 34b], the EC50 in the data set on HBV [1] turned out to be 8.23 µM. The CC50 with HepG2 cells [5] (setting [6]) turned out to be 41.6 µM.
Consider `COC(=O)C1=C(C)NC(c2ncc(F)cc2F)=NC12CC(C)(C)c1ccccc12` (single isomer, unassigned) [Compound 134b], for which the values for the EC50 in the data set with HBV [1] and in the data set on HBV [3] were 41.9 µM and more than 50 µM, respectively. Moreover, the CC50 in the data set on HepG2 cells [5] (human) was 35.8 µM; with HepG2 cells [4], more than 50 µM.
With `COC(=O)C1=C(C)NC(c2ncc(F)cc2F)=NC12c1ccccc1OC2(F)F` (single isomer, unassigned) [Compound 106b], the EC50 in the data set with HBV [1] was 29.4 µM; with HBV [3], more than 25 µM. The CC50 with HepG2 cells [5] (human) is more than 100 µM; in the data set with HepG2 cells [4], more than 25 µM.
As to `CCOC(=O)C1=C(CN2CCOCC2)NC(c2ccccn2)=NC1(C)c1ccc(F)cc1` (racemic) [Compound 4b], the concentration giving a half-maximal response (EC50) in the data set on HBV [1] is 0.643 µM; in the data set on HBV [3], 0.76 µM. In addition, the CC50 in the data set on HepG2 cells [5] (setting [6]) was 92.4 µM; in the data set with HepG2 cells [2], more than 50 µM.
In the case of `CCOC(=O)C1=C(CN2CCOCC2)NC(c2ccccn2)=NC1(C)c1ccc(F)cc1` (racemic) [Compound 4a], the EC50 in the data set with HBV [1] was more than 100 µM. Moreover, in the data set with HepG2 cells [5] (setting [6]), the CC50 turned out to be 92 µM.
As to `COC(=O)C1=C(CN2CCOCC2)NC(c2ccccn2)=NC12CCc1c(F)cccc12` (single isomer, unassigned) [Compound 66b], the EC50 worked out at 35.1 µM with HBV [1] and 48.9 µM in the data set with HBV [3]. The CC50 with HepG2 cells [5] (human) and in the data set on HepG2 cells [4] was more than 100 µM each time.
As for `COC(=O)C1=C(C)NC(c2ncccc2F)=NC1(C)c1ccc(F)c(F)c1` (single isomer, unassigned) [Compound 158b], the EC50 is more than 100 µM with HBV [1] (setting [7]) and more than 25 µM with HBV [3]. Also, the CC50 with HepG2 cells [2] is more than 25 µM.
